Earlier results, collected in article PMC5937704 (Biochemistry, 2018).

Experiments:
[1] = system: bromodomain 2 (BD2) of TAF1
[2] = system: bromodomain 1 (BD1) of TAF1

CCOC(=O)Nc1cc(-c2ccc(C)c(NS(C)(=O)=O)c2)nn2c(C)nnc12 [BSP, Bromosporine]
affinity for BD2 of TAF1 [1]: nanomolar affinity | affinity for BD1 of TAF1 [2]: significantly weaker (micromolar) affinity
